31 compounds from ChEMBL document CHEMBL1122449, “Anticoccidial derivatives of 6-azauracil. 5. Potentiation by benzophenone side chains” (J Med Chem, 1983) can be followed below.

One data set deals with Eimeria tenella. Kind of data set: Anticoccidial activity which controlled infection by Eimeria tenella in Leghorn cockerels. The format is functional. To be noted: read-out: MEC.
The nature of data set [1]: Apparent pKa value was measured in 2:1 DMF/H2O. The format is physicochemical.
The test system of another data set is Eimeria necatrix. Kind of data set: Anticoccidial activity which controlled infection by Eimeria necatrix in Leghorn cockerels; MEC means minimum effective concentration in parts per million. The format is functional. Conditions: read-out: MEC.
The test system of a further data set is Eimeria acervulina. Description: Anticoccidial activity which controlled infection by Eimeria acervulina in Leghorn cockerels. To be noted: read-out: MEC.
A short description of data set [2]: Apparent pKa value was measured in 1:1 DMF/H2O. Format: physicochemical.
The nature of data set [3]: Plasma half-life of the compound. Format: ADME.

For the compound `Cc1cc(C)c(C(=O)c2ccc(-n3ncc(=O)[nH]c3=O)cc2)c(C)c1`, the minimal effective concentration with Eimeria tenella is more than 250 µg/mL. For the same compound, the pH1/2 in data set [1] was determined as 7.16. In the case of `CS(=O)(=O)c1ccc(C(=O)c2ccc(-n3ncc(=O)[nH]c3=O)cc2Cl)cc1`, the minimal effective concentration with Eimeria necatrix was more than 15 µg/mL. Turning to `Cc1cc(-n2ncc(=O)[nH]c2=O)ccc1C(=O)c1ccc(C#N)cc1`, the minimal effective concentration in the data set on Eimeria tenella worked out at 125 µg/mL. Also, in data set [1], the pH1/2 was determined as 7.08.

`O=c1cnn(-c2ccc(-c3ccc4oc5ccc(Cl)cc5c(=O)c4c3)cc2)c(=O)[nH]1`: in the data set on Eimeria tenella, the minimal effective concentration is more than 250 µg/mL. Still for that read-out and setting: the value for `O=c1cnn(-c2ccc(C(O)c3ccc(Cl)cc3)c(Cl)c2)c(=O)[nH]1` (stereo not given) was 2 µg/mL; that for `CC(=O)c1ccc(-n2ncc(=O)[nH]c2=O)cc1Cl` was 125 µg/mL. For `Cc1cc(-n2ncc(=O)[nH]c2=O)ccc1C(=O)c1ccccc1Cl`, the minimal effective concentration in the data set on Eimeria tenella worked out at 60 µg/mL. The pH1/2 in data set [1] came out at 7.08. Regarding `O=C(c1ccc(-n2ncc(=O)[nH]c2=O)cc1)c1cccs1`, the minimal effective concentration in the data set with Eimeria tenella is more than 250 µg/mL.

In the case of `CSc1ccc(C(=O)c2ccc(-n3ncc(=O)[nH]c3=O)cc2Cl)cc1`, in the data set on Eimeria acervulina, the minimal effective concentration is more than 30 µg/mL. In the case of `Cc1cc(-n2ncc(=O)[nH]c2=O)ccc1C(=O)c1ccccc1`, in the data set with Eimeria tenella, the minimal effective concentration turned out to be 8 µg/mL. For the same compound, in data set [2], the pH1/2 was 7.02. In the case of `Cc1cc(Br)ccc1C(=O)c1ccc(-n2ncc(=O)[nH]c2=O)cc1Cl`, in the data set on Eimeria tenella, the minimal effective concentration was found to be 8 µg/mL. For `O=C(c1ccccc1)c1ccc(-n2ncc(=O)[nH]c2=O)cc1`, the minimal effective concentration with Eimeria tenella stood at 60 µg/mL. Further, the pH1/2 in data set [1] was found to be 7.79.

With `Cc1cc(-n2ncc(=O)[nH]c2=O)ccc1C(O)c1ccccc1` (stereo not given), the minimal effective concentration in the data set on Eimeria tenella was 30 µg/mL. The pH1/2 in data set [2] turned out to be 7.37. In the case of `Cc1cc(-n2ncc(=O)[nH]c2=O)ccc1C(O)c1ccc(Cl)cc1` (stereo not given), the minimal effective concentration with Eimeria tenella was 15 µg/mL. The same measure, in the same setting: the value for `Cc1cc(-n2ncc(=O)[nH]c2=O)ccc1Cc1ccccc1` was 30 µg/mL; that for `Cc1ccc(C(=O)c2ccc(-n3ncc(=O)[nH]c3=O)cc2)cc1` was more than 250 µg/mL; that for `Cc1cc(-n2ncc(=O)[nH]c2=O)cc(C)c1C(=O)c1ccc(Cl)cc1` was 15 µg/mL. On the same count and under the same terms, the value for `O=C(c1ccccc1)c1cccc(-n2ncc(=O)[nH]c2=O)c1` was more than 250 µg/mL. Regarding `Cc1cc(-n2ncc(=O)[nH]c2=O)ccc1C(=O)c1ccc(Cl)cc1Cl`, the minimal effective concentration in the data set with Eimeria tenella stood at 4 µg/mL. Also, the half-life in data set [3] was 45 h. Take `O=C(c1ccccc1)c1cc(-n2ncc(=O)[nH]c2=O)ccc1Cl`: in the data set with Eimeria tenella, the minimal effective concentration is more than 250 µg/mL. Still for that read-out and setting: the value for `CCCC(=O)c1ccc(-n2ncc(=O)[nH]c2=O)cc1` was more than 60 µg/mL. Regarding `O=C(c1ccc(Cl)cc1)c1ccc(-n2ncc(=O)[nH]c2=O)cc1Cl`, in the data set with Eimeria tenella, the minimal effective concentration was 2 µg/mL. Further, the half-life in data set [3] was 20 h. Besides, the pH1/2 in data set [1] was determined as 7.16.

`O=C(c1ccc(Cl)cc1)c1ccc(-n2ncc(=O)[nH]c2=O)cc1`: the minimal effective concentration in the data set with Eimeria tenella was determined as 30 µg/mL. Turning to `Cc1cc(-n2ncc(=O)[nH]c2=O)cc(C)c1C(O)c1ccc(Cl)cc1` (stereo not given), the minimal effective concentration with Eimeria tenella came to 30 µg/mL. Turning to `Cc1cc(-n2ncc(=O)[nH]c2=O)cc(Cl)c1C(=O)c1ccc(Cl)cc1`, the minimal effective concentration in the data set with Eimeria tenella was 8 µg/mL. For the same compound, in data set [3], the half-life is 21 h. Regarding `Cc1cc(-n2ncc(=O)[nH]c2=O)ccc1C(=O)c1ccc(Cl)cc1`, the minimal effective concentration with Eimeria tenella turned out to be 8 µg/mL. In data set [3], this compound had a half-life of 13 h. Also, the pH1/2 in data set [1] is 7.6. Take `COc1ccc(C(=O)c2ccc(-n3ncc(=O)[nH]c3=O)cc2)cc1`: in the data set with Eimeria tenella, the minimal effective concentration stood at 125 µg/mL. On to `O=C(c1ccc(Cl)cc1Cl)c1ccc(-n2ncc(=O)[nH]c2=O)cc1Cl`, for which the minimal effective concentration in the data set on Eimeria tenella was determined as 4 µg/mL. Consider `O=C(c1ccccc1)c1ccc(-n2ncc(=O)[nH]c2=O)cc1Cl`, for which the minimal effective concentration with Eimeria tenella turned out to be 15 µg/mL. In data set [1], the pH1/2 was determined as 7.04. For the compound `Cc1cc(Cl)ccc1C(=O)c1ccc(-n2ncc(=O)[nH]c2=O)cc1C`, the minimal effective concentration in the data set on Eimeria tenella came to 15 µg/mL. In the case of `CC(=O)c1ccc(-n2ncc(=O)[nH]c2=O)cc1`, in the data set with Eimeria tenella, the minimal effective concentration is more than 250 µg/mL. For the same compound, the pH1/2 in data set [1] is 6.53.

The term half-life denotes how long it takes for the measured level to halve. Low values mean rapid decline, high ones slow decline.
